{"source": "patent US20250255959A1", "about": "“A SYSTEM FOR DRUG-INDUCIBLE EXPRESSION OF A POLYNUCLEOTIDE” (Miltenyi Biotec B.V. & Co. KG, priority 2022, published 2025)", "key": {"[1]": {"system": "anti-CD20 CAR expression in primary T cells", "experiment": "Induction of anti-CD20 CAR expression in transduced primary T cells, flow cytometry", "type": "cell-based, human", "settings": "0-250 nM 4-OHT, 40 h", "description": "Lentiviral particles encoding for the different drug-inducible cassettes were manufactured as described in example 1.2. Drug-inducible T cells were generated as described in example 1.3. 1E4 LNGFR positive drug-inducible T cells were seeded in 100 μL TexMACS medium (Miltenyi Biotec) supplemented with IL-7 (Miltenyi Biotec) and IL-15 (Miltenyi Biotec) in a 96-round bottom well plate. Anti-CD20 CAR expression was induced by the addition of different concentrations of 4-OHT (0-250 nM, Sigma-Aldrich) in 100 μL μL TexMACS medium (Miltenyi Biotec) supplemented with IL-7 (Miltenyi Biotec) and IL-15 (Miltenyi Biotec) to each well. Untransduced T cells constitute the negative control. T cells that 10 constitutively express an anti-CD20 CAR (“direct CAR”) represent the positive control. Cells were incubated at 37° C. and 5% CO2. T cells were analyzed 40h post induction for anti-CD20 CAR expression by flow cytometry using anti-CD20 CAR detection reagent-PE. […]\nStaining was performed for 10 min at 4° C. followed by two successive washing steps with 200 L PEB (300 g, 5 min). […] Frequency of anti-CD20 CAR+inducible T cells (left graph) and mean fluorescence intensity (MFI) of anti-CD20 CAR expression (right graph) was determined and normalized to the expression of the transduction marker LNGFR. […]"}, "[2]": {"settings": "cited from earlier work"}}}
{"compound": "4-hydroxytamoxifen [4-OHT]", "values": [{"measurement": "anti-CD20 CAR surface expression (MFI) versus drug dose", "setting": "[1]", "result": "steadily increased with the drug dose"}, {"measurement": "induction ratios of anti-CD20 CAR expression versus drug dose", "setting": "[1]", "result": "higher drug doses resulting in greater induction ratios"}]}
{"compound": "CC/C(=C(\\c1ccccc1)c1ccc(OCCN(C)C)cc1)c1ccccc1", "note": "[tamoxifen, 2-(4-((1Z)-1,2-diphenyl-1-butenyl)phenoxy)-N,N-dimethylethanamine]", "values": [{"measurement": "steady-state plasma levels", "setting": "[2]; after 80 days of daily dosing", "result": "71 to 183", "unit": "ng/mL"}, {"measurement": "average peak plasma concentration", "setting": "[2]; single oral dose of 20 mg", "result": 40, "unit": "ng/mL"}]}
